Assay results from patent US12590099B2, “Inhibitors of histone deacetylase useful for the treatment or prevention of HIV infection” (Merck Sharp & Dohme LLC, priority 2018, dated 2026).
Where two headings read alike, the source gives them in different places.

How the values were obtained:
[1] = molecular target: T1, Recombinant human HDAC8 (Homo sapiens, UniProt Q9BY41); test: Human HDAC enzyme inhibitor Fluor-de-Lys assay, HDAC8; format: biochemical
T1 construct: purchased Enzo Life Sciences BML-SE145-0100
T1 sequence (Q9BY41 1-377): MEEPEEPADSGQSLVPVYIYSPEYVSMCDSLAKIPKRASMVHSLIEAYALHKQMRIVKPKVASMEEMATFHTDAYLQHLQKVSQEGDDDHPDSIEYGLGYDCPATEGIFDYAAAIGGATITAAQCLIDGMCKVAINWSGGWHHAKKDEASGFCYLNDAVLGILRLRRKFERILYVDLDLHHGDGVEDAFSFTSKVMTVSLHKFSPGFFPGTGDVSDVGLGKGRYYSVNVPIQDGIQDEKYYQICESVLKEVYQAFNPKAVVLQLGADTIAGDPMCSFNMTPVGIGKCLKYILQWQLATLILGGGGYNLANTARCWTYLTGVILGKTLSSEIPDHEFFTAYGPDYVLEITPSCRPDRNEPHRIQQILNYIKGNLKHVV

[2] = test system: KARN cells (Jurkat 2C4); test: cells; format: cell-based
Summary of the method: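 Jurkat 2C4 (KARN) cells dosed with test compounds up to 40 μM final, 0.4% DMSO, overnight at 5% CO2; luciferase read by Steady-Glo luminescence after 10 min at room temperature. DMSO set as 0% and 2 μM SAHA as 100% induction; 4-parameter fit of percent activation.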

[3] = molecular target: T2, HDAC6 (Homo sapiens, UniProt Q9UBN7); test: Human HDAC enzyme inhibitor Fluor-de-Lys assay, HDAC6; format: biochemical
T2 sequence (Q9UBN7 1-1215): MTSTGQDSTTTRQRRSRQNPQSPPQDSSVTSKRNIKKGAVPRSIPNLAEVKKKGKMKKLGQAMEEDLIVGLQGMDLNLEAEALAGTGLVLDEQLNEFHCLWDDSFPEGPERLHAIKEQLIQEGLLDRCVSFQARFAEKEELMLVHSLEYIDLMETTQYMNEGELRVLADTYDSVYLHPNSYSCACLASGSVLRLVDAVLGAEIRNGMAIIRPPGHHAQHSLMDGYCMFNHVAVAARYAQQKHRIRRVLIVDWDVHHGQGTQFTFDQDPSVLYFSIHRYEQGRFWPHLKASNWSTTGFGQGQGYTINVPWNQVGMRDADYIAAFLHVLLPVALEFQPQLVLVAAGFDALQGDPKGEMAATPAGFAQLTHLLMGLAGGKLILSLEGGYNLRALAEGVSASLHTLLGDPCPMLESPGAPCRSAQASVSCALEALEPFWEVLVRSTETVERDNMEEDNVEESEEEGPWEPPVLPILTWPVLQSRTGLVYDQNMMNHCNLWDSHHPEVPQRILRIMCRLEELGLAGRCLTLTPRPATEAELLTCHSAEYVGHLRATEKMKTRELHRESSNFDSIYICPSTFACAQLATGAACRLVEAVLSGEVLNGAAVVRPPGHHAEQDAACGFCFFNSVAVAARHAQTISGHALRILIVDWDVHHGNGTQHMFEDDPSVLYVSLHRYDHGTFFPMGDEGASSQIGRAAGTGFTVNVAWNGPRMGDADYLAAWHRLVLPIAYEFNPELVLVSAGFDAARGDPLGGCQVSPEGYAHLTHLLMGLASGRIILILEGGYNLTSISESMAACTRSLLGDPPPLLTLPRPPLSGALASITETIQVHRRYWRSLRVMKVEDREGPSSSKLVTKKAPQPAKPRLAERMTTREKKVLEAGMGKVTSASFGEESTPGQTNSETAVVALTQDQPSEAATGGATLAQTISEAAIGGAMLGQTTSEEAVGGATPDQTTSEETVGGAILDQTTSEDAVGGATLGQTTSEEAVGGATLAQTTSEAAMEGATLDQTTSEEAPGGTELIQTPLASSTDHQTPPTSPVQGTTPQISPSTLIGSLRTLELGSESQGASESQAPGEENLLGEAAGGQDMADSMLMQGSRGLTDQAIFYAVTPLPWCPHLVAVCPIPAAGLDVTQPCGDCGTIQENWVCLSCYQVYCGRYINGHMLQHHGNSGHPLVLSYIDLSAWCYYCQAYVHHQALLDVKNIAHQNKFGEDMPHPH

[4] = recombinant human HDAC8, Fluor-de-Lys assay
[5] = Homo sapiens, Jurkat, read-out: Karn EC50 (nM) 0.1% NHS, 0.1% normal human serum, luciferase induction, 100% = 2 μM SAHA
[6] = Homo sapiens, Jurkat, read-out: Karn EC50 (nM) 5% NHS, 5% normal human serum, luciferase induction, 100% = 2 μM SAHA

SMILES | IC50 [1, 4] [µM] | IC50 ([3]; HDAC6, Fluor-de-Lys assay) [µM] | EC50 [2, 5] [nM] | EC50 [2, 6] [nM] | other results
CCC(=O)CCCCC[C@H](NC(=O)C1CCC2(CC1)CN(C)C2)c1ncc(-c2cc3ccccc3nc2OC)[nH]1 [Compound 316] | 1.68 | 0.387 | – | – | EC50 ([2]; read-out: Karn EC50 (nM) 0.1% NHS, 0.1% normal human serum, luciferase induction, 100% = 2 μM SAHA): 151 nM; EC50 ([2]; read-out: Karn EC50 (nM) 5% NHS, 5% normal human serum, luciferase induction, 100% = 2 μM SAHA): 660 nM
CCC(=O)CCCCC[C@H](NC(=O)[C@@H]1CC12CCN(C)CC2)c1ncc(-c2cc3ccccc3nc2OC)[nH]1 (single isomer, unassigned) [Compound 320] | 14.6 | 0.709 | 339 | 1370 | –
CCC(=O)CCCCC[C@H](NC(=O)[C@@H]1C[C@]12CCN(C)C2)c1ncc(-c2cc3ccccc3nc2OC)[nH]1 [Compound 329] | 7.04 | > 0.15 | 262 | 1140 | –
CCC(=O)CCCCC[C@H](NC(=O)[C@H]1C[C@@]12CCN(C)C2)c1ncc(-c2cc3ccccc3nc2OC)[nH]1 [Compound 328] | 3.31 | 0.395 | 73 | 322 | –
CCC(=O)CCCCC[C@H](NC(=O)[C@H]1CC12CCN(C(C)C)CC2)c1ncc(-c2cc3ccccc3nc2OC)[nH]1 [Compound 337] | 5.66 | 0.16 | 32 | 57 | –
CCC(=O)CCCCC[C@H](NC(=O)C1CC12CCC(N(C)C)CC2)c1ncc(-c2cc3ccccc3nc2OC)[nH]1 (single isomer, unassigned) [Compound 128] | – | – | – | – | IC50 [1]: 5.58 µM; EC50 ([2]; read-out: Karn EC50 (nM) 0.1% NHS, 0.1% normal human serum): 442 nM; EC50 ([2]; read-out: Karn EC50 (nM) 5% NHS, 5% normal human serum): 1140 nM; IC50 [3]: 0.759 µM
CCC(=O)CCCCC[C@H](NC(=O)[C@H]1CC12CCN(Cc1ccc(OC)cc1)CC2)c1ncc(-c2cc3ccccc3nc2OC)[nH]1 [Compound 295] | 3.23 | 0.973 | 113 | 180 | –
CCC(=O)CCCCC[C@H](NC(=O)[C@H]1CC12CCN(C)CC2)c1ncc(-c2cc3ccc(-n4cccn4)cc3nc2OC)[nH]1 [Compound 176, (1S)—N-[(1S)-1-{5-[2-methoxy-7-(1H-pyrazol-1-yl)quinolin-3-yl]-1H-imidazol-2-yl}-7-oxononyl]-6-methyl-6-azaspiro[2.5]octane-1-carboxamide] | – | – | – | – | IC50 [1]: > 4.5 µM; EC50 ([2]; Homo sapiens, Jurkat, read-out: Karn EC50 (nM) 0.1% NHS, 0.1% normal human serum): 45 nM; EC50 ([2]; Homo sapiens, Jurkat, read-out: Karn EC50 (nM) 5% NHS, 5% normal human serum): 76 nM; IC50 [3]: > 1.5 µM
